In general, Km refers to the substrate concentration at which the rate is half of its maximum. In general, Ki refers to the equilibrium dissociation constant of an inhibitor or competing ligand from its target.

Bridge positions count the residues as written; N and C are the ends. Peptide text beside a SMILES is read from it.

The values below come from article PMC6530601, “Rapid and Scalable Plant-Based Production of a Potent Plasmin Inhibitor Peptide” (Frontiers in Plant Science, 2019).

Assay [1] concerns the target T1, native human plasmin (Homo sapiens, UniProt P00747).
T1 construct: incubated with 1 nM native human plasmin (Sigma-Aldrich); purchased Sigma-Aldrich
The settings on record: substrate of plasmin assay; determination not described, no reference given; cited from earlier work. As for the experimental part: A serial dilution of plant-derived [T4Y,I7R]SFTI-1 was incubated with 1 nM native human plasmin (Sigma-Aldrich) for 30 min in assay buffer (0.1 M Tris-HCl, pH 8.0, 0.1 M NaCl, and 0.005% Triton X-100) in low binding 96-well plates (Corning). […] The inhibition constant (Ki) was determined from three independent assays by the Morrison equation and non-lin ...

Assay [2] has as its target T1, native human plasmin. The assay can be described thus: Plasmin inhibitory assay (chromogenic peptide substrate). It counts as biochemical. The settings on record: plant-derived peptide; 1 nM native human plasmin, 30 min pre-incubation, 0.1 M Tris-HCl, pH 8.0, 0.1 M NaCl, 0.005% Triton X-100; 100 μM Acetyl-Arg-Met(sulphone)-Tyr-Arg-pNA, 405 nm over 7 min; Morrison equation; n = 3 independent assays; read-out: inhibition constant (Ki). As for the experimental part:
A serial dilution of plant-derived [T4Y,I7R]SFTI-1 was incubated with 1 nM native human plasmin (Sigma-Aldrich) for 30 min in assay buffer (0.1 M Tris-HCl, pH 8.0, 0.1 M NaCl, and 0.005% Triton X-100) in low binding 96-well plates (Corning). […] The inhibition constant (Ki) was determined from three independent assays by the Morrison equation and non-linear regression using GraphPad Prism 6.

T1 sequence (P00747 581-810 limits assumed): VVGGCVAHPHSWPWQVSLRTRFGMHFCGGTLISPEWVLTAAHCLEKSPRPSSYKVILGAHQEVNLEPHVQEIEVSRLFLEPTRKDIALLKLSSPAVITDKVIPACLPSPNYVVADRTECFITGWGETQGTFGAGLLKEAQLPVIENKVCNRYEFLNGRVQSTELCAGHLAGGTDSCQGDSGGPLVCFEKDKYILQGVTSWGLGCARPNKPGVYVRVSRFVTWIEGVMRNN
T1 sequence (P00747 97-580 partner limits assumed): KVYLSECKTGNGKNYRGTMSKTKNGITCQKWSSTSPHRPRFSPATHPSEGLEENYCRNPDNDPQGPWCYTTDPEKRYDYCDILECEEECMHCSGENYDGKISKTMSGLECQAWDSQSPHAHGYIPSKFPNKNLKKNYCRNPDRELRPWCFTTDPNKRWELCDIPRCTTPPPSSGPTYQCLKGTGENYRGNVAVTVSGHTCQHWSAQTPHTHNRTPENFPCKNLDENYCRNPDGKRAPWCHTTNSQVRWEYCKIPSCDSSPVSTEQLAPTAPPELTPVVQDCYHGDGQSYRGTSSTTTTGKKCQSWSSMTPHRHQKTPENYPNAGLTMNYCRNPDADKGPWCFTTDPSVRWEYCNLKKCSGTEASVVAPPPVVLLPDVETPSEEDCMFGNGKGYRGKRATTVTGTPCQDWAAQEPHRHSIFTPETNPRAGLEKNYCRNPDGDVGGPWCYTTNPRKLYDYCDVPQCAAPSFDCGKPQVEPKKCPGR

On to “Acetyl-Arg-Met(sulphone)-Tyr-Arg-pNA [colorimetric peptide substrate of plasmin]”, for which the Km on native human plasmin [1] is 23.5 µM.

Turning to `CC[C@H](C)[C@@H]1NC(=O)[C@@H]2CCCN2C(=O)[C@@H]2CCCN2C(=O)[C@H](CCCNC(=N)N)NC(=O)[C@H](CO)NC(=O)[C@H](CCCCN)NC(=O)[C@H](Cc2ccc(O)cc2)NC(=O)[C@@H]2CSSC[C@H](NC1=O)C(=O)N[C@@H](Cc1ccccc1)C(=O)N1CCC[C@H]1C(=O)N[C@@H](CC(=O)O)C(=O)NCC(=O)N[C@@H](CCCNC(=N)N)C(=O)N2` [[T4Y,I7R]SFTI-1] (cyclo(CFPDGRCYKSRPPI); disulfide 1-7), the Ki on native human plasmin [2] was found to be 0.025 ± 0.004 nM.
